# Reference: US6521590B1, “Biocidal proteins” (priority 1991, dated 2003)
# Where no end group is shown, it is not given here.
# What was measured:
# Phytophthora infestans = format: cell-based
# [1] = Chitin micro-column binding; conditions: washed at pH 7, desorbed with 100 mM acetic acid (pH 2.8), SDS-PAGE
# B cinerea = experiment: Effect of ions on antifungal activity (synthetic growth medium); format: cell-based, Botrytis cinerea; conditions: for increase of the IC50 values with CaCl2 at 1 mM: reference medium + 1 mM CaCl2; for effect of KCl at 10 mM on the dose-response curves: reference medium + 10 mM KCl; for increase of the IC50 values with KCl at 50 mM: reference medium + 50 mM KCl
# [2] = system: Alternaria brassicola MUCL 20297; format: cell-based
# [3] = system: Ascochyta pisi MUCL 30164; format: cell-based
# [4] = system: Botrytis cinerea MUCL 30158; format: cell-based
# [5] = system: Cercospora beticola strain K897; format: cell-based
# [6] = system: Colletotrichum lindemuthianum MUCL 9577; format: cell-based
# [7] = system: Verticillium dahliae MUCL 19210; format: cell-based
# [8] = system: Venturia inaegualis MUCL 15927; format: cell-based
# [9] = system: Fusarium culmorum IMI 180420; format: cell-based
# [10] = system: Rhizoctonia solani CBS 207-84; format: cell-based
# [11] = system: Fusarium oxysporum f.sp. pisi IMI 236441; format: cell-based
# [12] = system: Fusarium oxysporum f.sp. lycopersici MUCL 909; format: cell-based
# [13] = system: Nectria haematococca Collection Van Etten 160-2-2; format: cell-based
# [14] = system: Penicillium digitatum (K0879); format: cell-based
# Phoma betae MUCL 9916 = format: cell-based
# [15] = system: Pyrenophora tritici-repentis MUCL 30217; format: cell-based
# [16] = system: Pyricularia oryzae MUCL 30166; format: cell-based
# [17] = system: Trichoderma viride (K1127); format: cell-based
# [18] = system: Verticillium albo-atrum (K0937); format: cell-based
# Fusarium culmorum = format: physicochemical
# Procedure: Tests for antifungal activity were performed with 20 μl samples diluted five-fold with growth medium containing Fusarium culmorum spores, according to the assay method given in Example 1. untreated control samples consisted of the test proteins at 500 μg/ml in 10 mM sodium phosphat buffer (pH 7). For digestions, different proteases were added at 100 μg/ml and incubated at 37° C. for 16 hours. Heat stability tests were performed by heating aliquots of the test proteins for 10 minutes at different temperatures up to 100° C. pH stability was tested by incubation of test proteins for 1 hour in either 20 mM glycine-HCl (pH 2) or glycine-NaOH (pH 11) and subsequent dialysis for 16 hours against 10 mM sodium phosphate buffer (pH 7) using benzoylated cellulose tubing. Reduction of dishulphide bridges was done by addition of DTE at 30 mM and Tris-HCl (pH 8.6) at 300 mM. The reagents were removed by reversed-phase chromatography. For digestions, different proteases were added at 200 μg/ml and incubated at 37° C. for 3 hours.
# plant pathogenic fungi = format: cell-based
# [19] = system: Saccharomyces cerevisiae JRY188; conditions: S cerevisiae
# Procedure: Routinely, tests were performed with 20 μl of a (filter-sterilized) test solution and 80 μl of a fungal spore suspension (2×10^4 spores/ml) or mycelium fragments in either half strength potato dextrose broth (medium A) or half strength potato dextrose broth with CaCl2 and KCl added to final concentrations of 1 mM and 50 mM respectively (medium B). For experiments on the antagonistic effect of cations, a synthetic growth medium was used instead of Potato Dextrose Broth. […] Control microcultures contained 20 μl of sterile distilled water and 80 μl of the fungal spore suspension.
# Unless otherwise stated the test organism was Fusarium culmorum (strain IMI 180420) and incubation was carried out at 25° C. for 48 hours. Percent growth inhibition is defined as 100 times the ratio of the corrected absorbance of the control microculture minus the corrected absorbance of the test microculture over the corrected absorbance at 595 nm of the control microculture. The corrected absorbance values equal the absorbance at 595 nm of the culture measured after 48 hours minus the absorbance at 595 nm measured after 30 min. […] The antifungal activity (units per ml) is calculated as 50 times the dilution factor of a test solution at which 50% growth inhibition is obtained under the given assay conditions.
# Antibacterial activity was measured microspectrophotometrically as follows. […]
substance,measurement,setting,value
"Ac-AMP1: Antimicrobial protein from Amaranthus caudatus seeds, 29 residues, dimer of two identical 3 kDa subunits (SEQ ID NO: 5) (VGECVRGRCPSGMCCSQFGYCGKGPKYCG; cysteine pairing not given here; also: dimer of two identical subunits)",IC50,Phytophthora infestans,12 µg/mL
same,affinity toward chitin,[1],exhibit affinity toward chitin
same,increase of the IC50 values with CaCl2 at 1 mM,B cinerea,five to six-fold
same,effect of KCl at 10 mM on the dose-response curves,B cinerea,did not significantly affect the dose-response curves
same,increase of the IC50 values with KCl at 50 mM,B cinerea,about three-fold
"Ac-AMP2: Antimicrobial protein from Amaranthus caudatus seeds, 30 residues, Ac-AMP1 plus a carboxyl-terminal arginine (SEQ ID NO: 6) (VGECVRGRCPSGMCCSQFGYCGKGPKYCGR; not fully specified; cysteine pairing not given here)",IC50,[2],4 µg/mL
same,IC50,[3],8 µg/mL
same,IC50,[4],8 µg/mL
same,IC50,[5],0.8 µg/mL
same,IC50,[6],8 µg/mL
same,IC50,[7],5 µg/mL
same,IC50,[8],3 µg/mL
same,affinity toward chitin,[1],exhibit affinity toward chitin
same,increase of the IC50 values with CaCl2 at 1 mM,B cinerea,five to six-fold
same,effect of KCl at 10 mM on the dose-response curves,B cinerea,did not significantly affect the dose-response curves
same,increase of the IC50 values with KCl at 50 mM,B cinerea,about three-fold
Ca-AMP1: Antimicrobial protein purified from seeds of Capsicum annuum (SEQ ID NO: 15) (QEQCGNQAGGRACANRLCCSQYGYCGSTRAYCGVGCQSNCGR),IC50 (μg/ml) Medium B,[2],>500 µg/mL
same,IC50 (μg/ml) Medium B,[3],>500 µg/mL
same,IC50 (μg/ml) Medium B,[4],>500 µg/mL
same,IC50 (μg/ml) Medium B,[5],200 µg/mL
same,IC50 (μg/ml) Medium A,[6],50 µg/mL
same,IC50 (μg/ml) Medium B,[6],>500 µg/mL
same,IC50 (μg/ml) Medium A,[9],4 µg/mL
same,IC50 (μg/ml) Medium B,[9],>500 µg/mL
same,morphological changes in partially inhibited fungal spores,[9],severe branching of the emerging hyphal tips
same,IC50 (μg/ml) Medium A,[10],8 µg/mL
same,IC50 (μg/ml) Medium B,[10],>500 µg/mL
same,IC50 (μg/ml) Medium A,[7],6 µg/mL
same,IC50 (μg/ml) Medium B,[7],>500 µg/mL
same,IC50 (μg/ml) Medium A,[11],>500 µg/mL
same,IC50 (μg/ml) Medium B,[11],>500 µg/mL
same,IC50 (μg/ml) Medium A,[12],300 µg/mL
same,IC50 (μg/ml) Medium B,[12],>500 µg/mL
same,IC50 (μg/ml) Medium A,[13],4 µg/mL
same,IC50 (μg/ml) Medium B,[13],>500 µg/mL
same,IC50 (μg/ml) Medium B,[14],>500 µg/mL
same,IC50 (μg/ml) Medium A,Phoma betae MUCL 9916,300 µg/mL
same,IC50 (μg/ml) Medium B,Phoma betae MUCL 9916,>500 µg/mL
same,IC50 (μg/ml) Medium A,[15],70 µg/mL
same,IC50 (μg/ml) Medium B,[15],>500 µg/mL
same,IC50 (μg/ml) Medium A,[16],5 µg/mL
same,IC50 (μg/ml) Medium B,[16],>500 µg/mL
same,IC50 (μg/ml) Medium A,[17],200 µg/mL
same,IC50 (μg/ml) Medium B,[17],>500 µg/mL
same,IC50 (μg/ml) Medium B,[18],>500 µg/mL
same,affinity toward chitin,[1],exhibits affinity to chitin
same,antifungal activity after chymotrypsin treatment,"Fusarium culmorum; chymotrypsin digestion, 37° C.",no affect on activity
same,antifungal activity after heat treatment,Fusarium culmorum; heating for 10 minutes at different temperatures up to 100° C.,resistant to heat treatment at up to 80 °C for 10 minutes
same,reduction of antifungal activity after pronase E treatment,"Fusarium culmorum; pronase E digestion, 37° C.",at least 10 fold
same,reduction of antifungal activity after proteinase K treatment,"Fusarium culmorum; proteinase K digestion, 37° C.",at least 10 fold
same,antifungal activity after reduction of disulphide bonds,Fusarium culmorum; reduction by DTE / dithiothreitol,completely abolished the antifungal activity
same,reduction of antifungal activity after trypsin treatment,"Fusarium culmorum; trypsin digestion, 37° C.",2 fold
same,number of pathogenic fungi with IC50 value below 10 μg/ml,plant pathogenic fungi,10 of the fungi
same,IC50,[19],30 µg/mL
